In US10961238B2, “Modulators of hedgehog (Hh) signaling pathway” (E-THERAPEUTICS PLC, priority 2016, dated 2021):

test system: C3H10T1/2 cells; assay: C3H assay: differentiation of C3H10T1/2 cells by mSHH, measurement of alkaline phosphatase; type: cell-based, mouse; conditions: Mus musculus, C3H 10T1/2, 72 h, read-out: IC50 Ranges

| SMILES | IC50 |
| --- | --- |
| C[C@@H]1CN(C(=O)N2CC(S(=O)(=O)N3CCC(c4c[nH]c5ncccc45)CC3)C2)C[C@H](C)O1 [Compound 170] | 10 to 100 nM |

same assay, conditions: Mus musculus, C3H 10T1/2; C3H10T1/2 cells stimulated with mSHH for 72 hours; alkaline phosphatase activity; read-out: IC50 Ranges

| SMILES | IC50 |
| --- | --- |
| CC(C)(C)OC(=O)N1CC(S(=O)(=O)N2CCC(c3cnn4ccncc34)CC2)C1 [Compound 130, tert-butyl 3-(4-pyrazolo[1,5-a]pyrazin-3-ylpiperidin-1-yl)sulfonylaze-tidine-1-carboxylate] | 1000 to 10000 nM |
| CC(C)(C)OC(=O)N1CCC(S(=O)(=O)N2CCC(c3coc4cccnc34)CC2)CC1 [Compound 132, tert-butyl 4-(4-furo[3,2-b]pyridin-3-ylpiperidin-1-yl)sulfonylpiper-idine-1-carboxylate] | 100 to 1000 nM |
| CC(C)(C)OC(=O)N1CCC(S(=O)(=O)N2CCC(c3c[nH]c4ccccc34)CC2)CC1 [Compound 133, tert-butyl 4-[4-(1H-indol-3-yl)piperidin-1-yl]sulfonylpiper-idine-1-carboxylate] | 100 to 1000 nM |
| Cc1noc(C)c1CCN1CC(S(=O)(=O)N2CCC(c3coc4cccnc34)CC2)C1 [Compound 134, 3-[1-[1-[2-(3,5-dimethyl-1,2-oxazol-4-yl)ethyl]azetidin-3-yl]sulfonylpiper-idin-4-yl]furo [3,2-b]pyridine] | 100 to 1000 nM |
| Cc1noc(C)c1NC(=O)N1CC(S(=O)(=O)N2CCC(c3coc4cccnc34)CC2)C1 [Compound 135, N-(3,5-dimethyl-1,2-oxazol-4-yl)-3-(4-furo[3,2-b]pyridin-3-ylpiperidin-1-yl)sulfonylaze-tidine-carboxamide] | < 10 nM |
| O=C(OC1CCOCC1)N1CC(S(=O)(=O)N2CCC(c3coc4cccnc34)CC2)C1 [Compound 136, oxan-4-yl 3-(4-furo[3,2-b]pyridin-3-ylpiperidin-1-yl)sulfonylaze-tidine-1-carboxylate] | 10 to 100 nM |
| O=C(N1CCOCC1)N1CC(S(=O)(=O)N2CCC(c3coc4cccnc34)CC2)C1 [Compound 137, [3-(4-furo [3,2-b]pyridin-3-ylpiperidin-1-yl)sulfonylaze-tidin-1-yl]-morpholin-4-ylmethanone] | 100 to 1000 nM |
| Cc1noc(C)c1CC(=O)N1CC(S(=O)(=O)N2CCC(c3coc4cccnc34)CC2)C1 [Compound 138, N-2-(3,5-Dimethylisoxazol-4-yl)-acetyl 3-[(4-furo[3,2-b]pyridin-3-yl-1-piperidyl)sulfonyl]azetidine] | < 10 nM |
| O=C(NC1(C(F)(F)F)CC1)N1CC(S(=O)(=O)N2CCC(c3coc4cccnc34)CC2)C1 [Compound 139, 3-(4-furo[3,2-b]pyridin-3-ylpiperidin-1-yl)sulfonyl-N-[1-(trifluoromethyl)cyclopropyl] azetidine-1-carboxamide] | 10 to 100 nM |
| CC(C)(C)COC(=O)N1CC(S(=O)(=O)N2CCC(c3coc4cccnc34)CC2)C1 [Compound 140, 2,2-dimethylpropyl 3-(4-furo[3,2-b]pyridin-3-ylpiperidin-1-yl)sulfonylaze-tidine-1-carboxylate] | 10 to 100 nM |
| O=C(OC1CCCCC1)N1CC(S(=O)(=O)N2CCC(c3coc4cccnc34)CC2)C1 [Compound 141, Cyclohexyl 3-[(4-furo[3,2-b]pyridin-3-yl-1-piperidyl)sulfonyl]azetidine-1-carboxylate] | 10 to 100 nM |
| CN(C)CC(C)(C)OC(=O)N1CC(S(=O)(=O)N2CCC(c3ccncc3)CC2)C1 [Compound 144, [1-(dimethylamino)-2-methylpropan-2-yl]3-(4-pyridin-4-ylpiperidin-1-yl)sulfonylaze-tidine-1-carboxylate] | 100 to 1000 nM |
| CC(C)(CN1CCOCC1)CN1CC(S(=O)(=O)N2CCC(c3c[nH]c4ncccc34)CC2)C1 [Compound 146] | 1000 to 10000 nM |
| COCC(C)(C)OC(=O)N1CC(S(=O)(=O)N2CCC(c3c[nH]c4ncccc34)CC2)C1 [Compound 152, (1-methoxy-2-methylpropan-2-yl) 3-[4-(1H-pyrrolo[2,3-b]pyridin-3-yl)piperidin-1-yl]sulfonylaze-tidine-1-carboxylate] | < 10 nM |
| CCN(C(=O)N1CC(S(=O)(=O)N2CCC(c3c[nH]c4ncccc34)CC2)C1)C(C)(C)C [Compound 156, N-tert-butyl-N-ethyl-3-[4-(1H-pyrrolo[2,3-b]pyridin-3-yl)piperidin-1-yl]sulfonylaze-tidine-1-carboxamide] | < 10 nM |
| O=C(OC[C@@H]1CCCO1)N1CC(S(=O)(=O)N2CCC(c3c[nH]c4ncccc34)CC2)C1 [Compound 163, [(2S)-oxolan-2-yl]methyl 3-[4-(1H-pyrrolo[2,3-b]pyridin-3-yl)piperidin-1-yl]sulfonylaze-tidine-1-carboxylate] | 10 to 100 nM |
| C[C@@H]1CN(C(=O)N2CC(S(=O)(=O)N3CCC(c4c[nH]c5ncccc45)CC3)C2)C[C@@H](C)O1 [Compound 164, [(2R,6R)-2,6-dimethylmorpholin-4-yl]-[3-[4-(1H-pyrrolo[2,3-b]pyridin-3-yl)piperidin-1-yl]sulfonylaze-tidin-1-yl]methanone] | 10 to 100 nM |
| C[C@H]1COC[C@H](C)N1C(=O)N1CC(S(=O)(=O)N2CCC(c3c[nH]c4ncccc34)CC2)C1 [Compound 165, [(3S,5S)-3,5-dimethylmorpholin-4-yl]-[3-[4-(1H-pyrrolo[2,3-b]pyridin-3-yl)piperidin-1-yl]sulfonylaze-tidin-1-yl]methanone] | 100 to 1000 nM |
| CC1(C)COCC(C)(C)N1C(=O)N1CC(S(=O)(=O)N2CCC(c3c[nH]c4ncccc34)CC2)C1 [Compound 169, [3-[4-(1H-pyrrolo[2,3-b]pyridin-3-yl)piperidin-1 yl]sulfonylaze-tidin-1-yl]-(3,3,5,5-tetramethylmorpholin-4-yl)methanone] | 10 to 100 nM |
| CC(C)(C)OC(=O)N1CCN(S(=O)(=O)N2CC(S(=O)(=O)N3CCC(c4c[nH]c5ncccc45)CC3)C2)CC1 [Compound 172, tert-butyl 4-[3-[4-(1H-pyrrolo[2,3-b]pyridin-3-yl)piperidin-1-yl]sulfonylaze-tidin-1-yl] sulfonylpiper-azine-1-carboxylate] | 10 to 100 nM |
| CC(C)N(C(=O)N1CC(S(=O)(=O)N2CCC(c3c[nH]c4ncccc34)CC2)C1)C(C)C [Compound 173, N,N-Diisopropyl-3-[[4-(1H-pyrrolo[2,3-b]pyridin-3-yl)-1-piperidyl]sulfonyl]azetidine-1-carboxamide] | 100 to 1000 nM |
| CN(C(=O)N1CC(S(=O)(=O)N2CCC(c3c[nH]c4ncccc34)CC2)C1)C(C)(C)C [Compound 176, N-tert-butyl-N-methyl-3-[4-(1H-pyrrolo[2,3-b]pyridin-3-yl)piperidin-1-yl]sulfonylaze-tidine-1-carboxamide] | < 10 nM |
| COC1CCC(OC(=O)N2CC(S(=O)(=O)N3CCC(c4c[nH]c5ncccc45)CC3)C2)CC1 (stereo not drawn) [Compound 180, (4-methoxycyclohexyl) 3-[4-(1H-pyrrolo[2,3-b]pyridin-3-yl)piperidin-1-yl]sulfonylaze-tidine-1-carboxylate] | 10 to 100 nM |

Continued, values first:

| IC50 | SMILES |
| --- | --- |
| 100 to 1000 nM | COC(=O)c1cnc(N2CC(S(=O)(=O)N3CCC(c4c[nH]c5ncccc45)CC3)C2)o1 [Compound 142, methyl 2-[3-[4-(1H-pyrrolo [2,3-b]pyridin-3-yl)piperidin-1-yl]sulfonylaze-tidin-1-yl]-1,3-oxazole-5-carboxylate] |
| 1000 to 10000 nM | CCN(CC)CC(C)(C)CN1CC(S(=O)(=O)N2CCC(c3c[nH]c4ncccc34)CC2)C1 [Compound 145, N,N-diethyl-2,2-dimethyl-3-[3-[4-(1H-pyrrolo[2,3-b]pyridin-3-yl)piperidin-1-yl]sulfonylaze-tidin-1-yl]propan-1-amine] |
| 1000 to 10000 nM | CC(C)C(C(C)C)N1CC(S(=O)(=O)N2CCC(c3c[nH]c4ncccc34)CC2)C1 [Compound 148, 3-[1-[1-(2,4-dimethylpentan-3-yl)azetidin-3-yl]sulfonylpiper-idin-4-yl]-1H-pyrrolo[2,3-b]pyridine] |
| 100 to 1000 nM | COC(=O)N1CC(S(=O)(=O)N2CCC(c3c[nH]c4ncccc34)CC2)C1 [Compound 151, methyl 3-[4-(1H-pyrrolo [2,3-b]pyridin-3-yl)piperidin-1-yl]sulfonylaze-tidine-1-carboxylate] |
| 10 to 100 nM | CC[C@H](C)OC(=O)N1CC(S(=O)(=O)N2CCC(c3c[nH]c4ncccc34)CC2)C1 [Compound 153, [(2S)-butan-2-yl] 3-[4-(1H-pyrrolo[2,3-b]pyridin-3-yl)piperidin-1-yl]sulfonylaze-tidine-1-carboxylate] |
| 100 to 1000 nM | O=S(=O)(C1CN(c2ncccn2)C1)N1CCC(c2c[nH]c3ncccc23)CC1 [Compound 155, 3-[1-(1-pyrimidin-2-ylazetidin-3-yl)sulfonylpiper-idin-4-yl]-1H-pyrrolo[2,3-b]pyridine] |
| 1000 to 10000 nM | O=S(=O)(C1CN(Cc2cccnc2)C1)N1CCC(c2c[nH]c3ncccc23)CC1 [Compound 157, 3-[1-[1-(pyridin-3-ylmethyl)azetidin-3-yl]sulfonylpiper-idin-4-yl]-1H-pyrrolo[2,3-b]pyridine] |
| 1000 to 10000 nM | O=S(=O)(C1CN(C2CCCC2)C1)N1CCC(c2c[nH]c3ncccc23)CC1 [Compound 158] |
| 1000 to 10000 nM | CC1(CN2CC(S(=O)(=O)N3CCC(c4c[nH]c5ncccc45)CC3)C2)COC1 [Compound 159, 3-[1-[1-[(3-methyloxetan-3-yl)methyl]azetidin-3-yl]-sulfonylpiper-idin-4-yl]-1H-pyrrolo[2,3-b]pyridine] |
| 1000 to 10000 nM | CN(C)C(=O)N1CC(S(=O)(=O)N2CCC(c3c[nH]c4ncccc34)CC2)C1 [Compound 167, N,N-dimethyl-3-[4-(1H-pyrrolo[2,3-b]pyridin-3-yl)piperidin-1-yl]sulfonylaze-tidine-1-carboxamide] |
| 10 to 100 nM | CN(Cc1ccco1)C(=O)N1CC(S(=O)(=O)N2CCC(c3c[nH]c4ncccc34)CC2)C1 [Compound 178, N-(2-Furylmethyl)-N-methyl-3-[[4-(1H-pyrrolo[2,3-b]pyridin-3-yl)-1-piperidyl]sulfonyl]azetidine-1-carboxamide] |
| 10 to 100 nM | CC(C)NC(=S)N1CC(S(=O)(=O)N2CCC(c3c[nH]c4ncccc34)CC2)C1 [Compound 179, N-propan-2-yl-3-[4-(1H-pyrrolo[2,3-b]pyridin-3-yl)piperidin-1-yl]sulfonylaze-tidine-1-carbo-thioamide] |
